Results on one compound are retold here after US20110250686A1 (CELLARTIS AB, priority 2006, published 2011).

In this data set the test system is hepatocyte-like cells. Conditions: against VitroHES reference protocol.

As to `C[C@@H]1C[C@H]2[C@@H]3CCC4=CC(=O)C=C[C@]4(C)[C@@]3(F)[C@@H](O)C[C@]2(C)[C@@]1(O)C(=O)CO` [Dexamethasone], the “morphology / appearance of hepatocyte-like cells” value is “improved the appearance of the HCLC”.
